Test results as given in PMC10005301, “Prediction of the n-Octanol/Water Partition Coefficients of Basic Compounds Using Multi-Parameter QSRR Models Based on IS-RPLC Retention Behavior in a Wide pH Range” (Molecules, 2023).
Where two headings read alike, the source gives them in different places.

How the values were obtained:
[1] = Excerpt: (§1) The retention behavior of the 42 basic compounds (Table 1) were investigated at different ratios of methanol (φ = 0.7–0.1, the interval was 0.1 or 0.05 based on the retention of the investigated solutes). The logk values were plotted versus φ for each solute at pH 7.0, pH 8.0, pH 9.0, and pH 10.0. […] The logD values of the model compounds and verification compounds calculated using Equation (S3) based on the logP and pH values are also listed in Table 1.
(§2) At each pH, the retention time (tR) of every analyte was determined for at least four different volume fractions (φ) of methanol. All the tR values of the solutes were obtained by averaging the results of at least three independent injections. The tR value was corrected using dual-point retention time correction (DP-RTC). For a detailed description of the process, refer to our previous work. For the different hydrophobicities of the studied compounds, benzene, toluene, and benzyl alcohol were used as anchor compounds in the DP-RTC method. The dead time t0 was determined using uracil. For each solute, the logarithm of k was plotted against φ, and logkw was obtained using the Equation (S1). The logD values of the model compounds were calculated using Equation (S3), and the logD–logkw models were established with Equation (S4). The statistical analysis for the regression model was accomplished using Origin 9.4. […]
(§3) Where, k is the capacity factor, φ is the volume fraction of organic modifier in the mobile phase, and S is the constant obtained by linear regression in the equations. […]
and logkw, which is usually called Collander equation [25 ]. lo g lo g wPm k n= + (S2)
Where, m and n are constants obtained by linear regression.
The Eqs. (S1) and (S2) are the basis for the determination of logP by revered- phase liquid chromatography (RPLC) method. For dissociative solutes, it has been confirmed by many studies that the logD calibrated from logP has a better linear correlation with logkw than logP.
For basic compounds, the logD value can be calibrated from Eq. (S3), and the Collander equation can be rewritten into Eq. (S4). log log( )D − −+ −+= + ++P […]
lo g ' lo g 'Dm k n= +w (S4)
Where, pKa1, pKa2 , … p Kan are the dissociation constants of basic compounds of corresponding acids in the mobile phase, pH is the pH value of mobile phase, m′ and n′ are fitting parameters. Han et al. pointed out that although mobile phase pH and pKa of solutes will change along with the varied organic modifier fraction, the difference between a couple of relevant pH and pKa is a constant. Therefore, the used pH and pKa in this paper were both the values obtained at 100% aqueous phase. […]

[2] = design: method as in UFZ-LSER database; details: hydrogen bonding parameter B; ref UFZ-LSER database; cited from earlier work
[3] = ref database module of ACD/Labs software; cited from earlier work
[4] = IS-RPLC retention on silica-based C18 column, logkw by linear solvent strength model; assay type: physicochemical
Experimental: as §1
The column temperature was set at 30 °C. Methanol and 20 mmol/L ammonium phosphate buffer (pH = 7.0, 8.0, 9.0, 10.0) was used as the mobile phase to perform isocratic elution. The injection volume was 10 µL and the detection wavelength for each eluted compound was set at its optimum absorption wavelength.
as §2, §3
The Eqs. (S1) and (S2) are the basis for the determination of logP by revered- phase liquid chromatography (RPLC) method. For dissociative solutes, it has been confirmed by many studies that the logD calibrated from logP has a better linear correlation with logkw than logP. […]

[5] = n-octanol/water; ref database module of ACD/Labs software; cited from earlier work
[6] = pH 7.0, calculated with literature logP, pKa and pH, Equation (S3)
[7] = pH 8.0, calculated with literature logP, pKa and pH, Equation (S3)
[8] = pH 9.0, calculated with literature logP, pKa and pH, Equation (S3)
[9] = pH 10.0, calculated with literature logP, pKa and pH, Equation (S3)
[10] = pH 7.0, methanol/20 mmol/L ammonium phosphate buffer, Welch Xtimate C18, 30 °C, 100% aqueous extrapolation
[11] = pH 8.0, methanol/20 mmol/L ammonium phosphate buffer, Welch Xtimate C18, 30 °C, 100% aqueous extrapolation
[12] = pH 9.0, methanol/20 mmol/L ammonium phosphate buffer, Welch Xtimate C18, 30 °C, 100% aqueous extrapolation
[13] = pH 10.0, methanol/20 mmol/L ammonium phosphate buffer, Welch Xtimate C18, 30 °C, 100% aqueous extrapolation

Structure (SMILES) | logDpH 7.0 ([1]; pH 7) | logDpH 8.0 ([1]; pH 8) | logDpH 9.0 ([1]; pH 9) | logDpH 10.0 ([1]; pH 10) | B [2] | pKa1 [3] | logkw-pH 7.0 ([4]; pH 7) | logkw-pH 8.0 ([4]; pH 8) | logkw-pH 9.0 ([4]; pH 9) | logkw-pH 10.0 ([4]; pH 10) | logP [5] | logDpH 7.0 [1, 6] | logDpH 8.0 [1, 7] | logDpH 9.0 [1, 8] | logDpH 10.0 [1, 9] | logkw-pH 7.0 [4, 10] | logkw-pH 8.0 [4, 11] | logkw-pH 9.0 [4, 12] | logkw-pH 10.0 [4, 13]
Cc1ccc(N)c(C)c1 [2,4-Dimethylaniline] | 1.68 | 1.68 | 1.68 | 1.68 | 0.95 | 4.70 | 1.92 | 1.98 | 2.00 | 2.04 | 1.68 |  |  |  |  |  |  |  | 
Cc1ccnc(C)c1 [2,4-Dimethylpyridine] |  |  |  |  | 0.63 | 6.58 |  |  |  |  | 1.65 | 1.51 | 1.63 | 1.65 | 1.65 | 1.76 | 1.85 | 1.88 | 1.96
Cc1cccc(C)n1 [2,6-Dimethylpyridine] | 1.52 | 1.66 | 1.68 | 1.68 | 0.61 | 6.65 |  |  |  |  | 1.68 |  |  |  |  | 1.68 | 1.76 | 1.78 | 1.81
Cc1ccnc(N)c1 [2-Amino-4-methylpyridine] |  |  |  |  | 0.95 | 7.38 |  |  |  |  | 0.89 | 0.36 | 0.80 | 0.88 | 0.89 | 1.00 | 1.16 | 1.28 | 1.32
COc1ccccc1N [2-Methoxyaniline] | 0.95 | 0.95 | 0.95 | 0.95 | 0.99 | 4.53 | 1.38 | 1.41 | 1.42 | 1.49 | 0.95 |  |  |  |  |  |  |  | 
CC(C)c1ccc(N)cc1 [4-Isopropylaniline] |  |  |  |  | 0.92 | 4.85 |  |  |  |  | 2.23 | 2.23 | 2.23 | 2.23 | 2.23 | 2.42 | 2.57 | 2.59 | 2.65
COc1ccc(N)cc1 [4-Methoxyaniline] | 0.79 |  | 0.80 | 0.80 | 1.05 | 5.36 | 1.05 | 0.99 | 1.07 | 1.11 | 0.80 |  | 0.80 |  |  |  |  |  | 
Cc1ccc(N)cc1 [4-Methylaniline] | 1.40 | 1.41 | 1.41 | 1.41 | 0.94 | 5.08 | 1.50 | 1.53 | 1.54 | 1.58 | 1.41 |  |  |  |  |  |  |  | 
Cc1ccncc1 [4-Methylpyridine] | 1.29 | 1.33 | 1.33 | 1.33 | 0.63 | 5.99 |  |  |  |  | 1.33 |  |  |  |  | 1.40 | 1.41 | 1.44 | 1.46
c1ccc(-c2ccncc2)cc1 [4-Phenylpyridine] | 2.58 | 2.59 | 2.59 | 2.59 | 1.38 | 5.45 | 2.66 | 2.81 | 2.84 | 2.80 | 2.59 |  |  |  |  |  |  |  | 
CCN(CC)c1ccccc1 [N, N-Diethylaniline] | 3.17 | 3.29 | 3.31 | 3.31 | 0.95 | 6.57 | 3.20 | 3.44 | 3.47 | 3.54 | 3.31 |  |  |  |  |  |  |  | 
